Experiments:
Assay type in all cases: cell-based
Ub Ser65 phosphorylation = experiment: Immunofluorescence for Ub Ser65 phosphorylation in YFP-parkin transfected HeLa cells; conditions: immunofluorescence; for impact on ubiquitin phosphorylation, compound alone: 50 μM, 24 h, no niclosamide or CCCP
Description: (§1) Cells were seeded on PerkinElmer PhenoPlate 96-well plates, followed by treatment with compounds. Cells were fixed in chilled 4% PFA for 10 min followed by washes in PBS. […] Following PBS washes, cells were blocked using blocking buffer (PBS, 5% BSA, 0.1% Tween20) for 1 h at room temperature. Primary antibodies were diluted in blocking buffer and added to cells to be incubated overnight at 4° C. Cells were subsequently washed with PBS-T and the appropriate secondary antibodies (diluted in blocking buffer) were added for 2 h at room temperature in darkness. 10 μg/ml of Hoechst 33258 stain was added with secondary antibodies when required. Cells were again washed with PBS-T followed by addition of PBS with 0.02% sodium azide. Cells were then stored at 4° C. until ready for imaging. Primary antibodies used for immunofluorescence are as follows: Phospho-Ub Ser 65 (Sigma-Aldrich cat #ABS1513-1), TOM20 (Santa-Cruz cat #sc-17764). Secondary antibodies and stains used in immunofluorescence; Anti-IgG2a Alexa Fluor™ 546 (ThermoFisher cat #A21133) Anti-rabbit Alexa Fluor™ 647 (ThermoFisher cat #A21244), Hoechst 33258 stain (Sigma-Aldrich cat #B2883).
(§2) Confocal microscopy was performed using a Zeiss LSM800 w/Airyscan fluorescent microscope equipped with lasers emitting at 405 nm, 488 nm, 561 nm and 640 nm. All images were captured using a 40x oil immersion objective lens and processed using Zeiss ZEN software. Images were analysed and quantified using Columbus (PerkinElmer) and TIBCO Spotfire software.
(§3) First, HeLa cells transfected with YFP-parkin were either left untreated or treated with 50 μM kinetin riboside, nucleosides 9a and 9c for 24 h.

[1] = test system: HeLa cells transfected with YFP-parkin; experiment: Immunofluorescence for YFP-parkin localisation and TOM20 (mitochondrial fragmentation); conditions: for parkin localisation to the mitochondria after pre-treatment followed by CCCP, compared to CCCP alone: 50 μM 24 h, then 10 μM CCCP; for impact on mitochondrial fragmentation (TOM20), compound alone / impact on parkin localisation, compound alone: 50 μM, 24 h, no niclosamide or CCCP
Description: as §1, §2, §3

PINK1 = molecular target: T1, PINK1 (Homo sapiens, UniProt Q9BXM7); experiment: PINK1 activation in cells judged by parkin Ser65 phosphorylation (parkin-transfected HeLa cells); conditions: 50 μM, 1 h
T1 construct: HeLa cells, which express PINK1 endogenously; endogenous in cells; host or cells: HeLa cells transiently transfected with parkin
Description: Both HeLa and parkin-overexpressed HeLa cells were maintained in DMEM high glucose (Gibco), 10% FBS (Sigma-Aldrich) at 37° C. with 5% CO2. For experiments, cells were counted and seeded into a range of culture plates, depending on the experiment, cell counting was done using the Cellometer Auto T4 with TrypanBlue (Gibco). […] Alternatively, HeLa cells were seeded in well plates and then transfected with […] of parkin cDNA using the PEI method once the plated cells reached 60% confluency. After 6 hours, the media was changed. Sub-culturing was done when the cells reached ˜90% confluency.
Cell culture with 70-80% confluency was lysed as follows: cells were washed with Phosphate Buffer Saline (PBS) (Sigma). 150 μl of lysis buffer was used on each well containing either: • 50 mM Tris-HCl pH 7.5, 1 mM EDTA, 1 mM EGTA, 0.27 M sucrose, 1 mM Na3VO4, 50 mM NaF, 5 mM Na pyrophosphate and fresh 1 mM benzamidine, 1% NP-40 and […]; or • 50 mM Tris-HCl pH 7.5, 1 mM EDTA, 1 mM EGTA, 10 mM Na β-glycerophosphate, 0.27 M sucrose, 1 mM Na3VO4, 50 mM NaF, 10 mM Na pyrophosphate with fresh 1 mM benzamidine, 1% Triton X-100, complete EDTA-free Protease Inhibitor, Phosphatase inhibitor cocktail 3 and 100 μM of 2-chloroacetamide.
The cells were scrapped and transferred to the microtube and eventually spun down at 12,000 rpm for 15 minutes at 4° C. Finally, the supernatant was transferred to the new microtubes and stored at −20° C. Protein concentration was measured using Bradford Assay. Serial concentrations 0.125; 0.25; 0.5 and 1 mg/ml of Bovine Serum Albumin (BSA) (Sigma Aldrich) were used as a standard. Samples were boiled at 90° C. for 5 minutes in SDS sample loading buffer.

[2] = test system: immortalised MEF expressing PINK1 wild-type (WT); experiment: MitoQC mitophagy assay, MEF expressing PINK1 wild-type; conditions: 5 μM, 24 h
Excerpt: (§4) With the inhibition of ubiquitin phosphorylation and parkin localisation to the mitochondria by kinetin riboside and the nucleoside analogue 9c, we next asked whether these compounds still induce mitophagy in a PINK1 dependent manner. To explore this, we employed the established MitoQC assay for measuring mitophagy in cells^11,12.

PINK1 KO MEFs = experiment: MitoQC mitophagy assay, PINK1 knock-out MEF; conditions: 5 μM, 24 h
Excerpt: as §4

T1 sequence (Q9BXM7 78-581): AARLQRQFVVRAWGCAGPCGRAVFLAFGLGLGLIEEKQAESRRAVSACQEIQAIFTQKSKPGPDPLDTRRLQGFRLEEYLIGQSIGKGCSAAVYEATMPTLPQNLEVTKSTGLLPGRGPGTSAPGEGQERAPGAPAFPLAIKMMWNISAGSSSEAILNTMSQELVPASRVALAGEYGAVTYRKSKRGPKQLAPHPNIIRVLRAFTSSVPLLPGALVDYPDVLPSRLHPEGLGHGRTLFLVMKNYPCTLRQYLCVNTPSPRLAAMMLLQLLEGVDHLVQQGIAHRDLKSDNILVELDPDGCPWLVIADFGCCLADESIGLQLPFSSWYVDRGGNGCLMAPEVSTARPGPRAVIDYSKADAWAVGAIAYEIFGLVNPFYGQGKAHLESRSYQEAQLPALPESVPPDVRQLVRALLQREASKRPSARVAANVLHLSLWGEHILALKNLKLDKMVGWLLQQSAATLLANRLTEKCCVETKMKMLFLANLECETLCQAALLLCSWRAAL

Row | Structure (SMILES) | reduction in ubiquitin phosphorylation and parkin localisation compared with kinetin riboside (Ub Ser65 phosphorylation; 50 μM 24 h, then 10 μM CCCP) | ubiquitin Ser65 phosphorylation after pre-treatment followed by CCCP, compared to CCCP alone (Ub Ser65 phosphorylation; 50 μM 24 h, then 10 μM CCCP) | impact on ubiquitin phosphorylation, compound alone (Ub Ser65 phosphorylation) | parkin localisation to the mitochondria after pre-treatment followed by CCCP, compared to CCCP alone [1] | impact on mitochondrial fragmentation (TOM20), compound alone [1] | impact on parkin localisation, compound alone [1] | activation of PINK1 as judged by parkin Ser65 phosphorylation (PINK1) | level and PINK1 dependence of mitophagy (WT versus KO MEFs) [2] | mitophagy in PINK1 WT MEFs [2] | mitophagy in PINK1 KO MEFs (PINK1 KO MEFs) | inhibition of ubiquitin phosphorylation by pre-treatment (Ub Ser65 phosphorylation; YFP-parkin HeLa cells, 50 μM 24 h prior to 10 μM niclosamide or CCCP 1 h)
1 | OC[C@H]1O[C@@H](n2cnc3c(NCc4ccccc4)ncnc32)[C@H](O)[C@@H]1O [9c, (2R,3R,4S,5R)-2-(6-(benzylamino)-9H-purin-9-yl)-5-(hydroxymethyl)tetrahydrofuran-3,4-diol] | appears stronger than that induced by kinetin riboside | significant reduction | did not have any impact | significant reduction | did not have any impact | did not have any impact | low level activation of PINK1 | low level of mitophagy in a PINK1-dependent manner | induced mitophagy | not observed | –
2 | OC[C@H]1O[C@@H](n2cnc3c(NCc4ccco4)ncnc32)[C@H](O)[C@@H]1O [kinetin riboside, N^6-(2-furanylmethyl) adenosine] | – | inhibited | did not have any impact | inhibition | did not have any impact | did not have any impact | low level activation of PINK1 | low level of mitophagy in a PINK1-dependent manner | induced mitophagy | not observed | inhibited ubiquitin phosphorylation

Source: patent publication US20260014184A1, “ADENOSINE DERIVATIVES FOR USE IN THE TREATMENT OF NEURODEGENERATIVE DISORDERS AND CANCER” (UNIVERSITY COLLEGE CARDIFF CONSULTANTS LIMITED, priority 2022, published 2026)
